Data taken from patent US10301320B2, “Compositions and methods of modulating 15-PGDH activity” (CASE WESTERN RESERVE UNIVERSITY, priority 2012, dated 2019).
“Also recorded” adds a separate entry of the source.

Legend:
A549 cells = assay: PGE2 levels in medium of IL1-beta stimulated A549 cells; format: cell-based
C57BL/6J mice [1] = assay: Survival after 11 Gy irradiation and bone marrow allograft; format: in vivo
Text: The experimental design is depicted in FIG. 50.
Under the conditions of the mouse colony during this study, control mice receiving 100,000-500,000 cells are all dead between days 4-13 of study. […] Such activity would be of particular utility in settings, such as transplantation with umbilical cord stem cells, in which donor cell numbers are limited.

FVB male mice = assay: Dextran sodium sulfate (DSS) induced colitis; format: in vivo
C57BL/6J mice [2] = assay: Survival following acetaminophen (Tylenol) overdose; format: in vivo; details: for Number of mice surviving: Table 10, first dose immediately after Tylenol;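 as to all read-outs here: control mice received vehicle only, given once or twice per day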
Hepatocyte stability = format: in vitro ADME; details: result in words
Description: Time to inhibition refers to the time needed to inhibit the generation of NADH by 15-PGDH from the moment with drug is added into the reaction mix. Delta™ refers to the shift in melting temperature of recombinant 15-PGDH in the presence of drug (with cofactor NADH also present). Concentration of Full Cell Line Reporter Induction refers to the concentration of drug that needs to be added to reporter cell line to achieve maximal induction of the 15-PGDH-luciferase gene fusion reporter cassette, as measured by luciferase assays. Hepatocyte stability refers to the half-life of compound in the presence of hepatocytes in culture. Toxicity refers to the concentration of compound needed to decrease cell numbers in a cell culture assay.

[3] = system: 15-PGDH-luciferase fusion reporter in V9m, LS174T and V503 cell lines; assay: 15-PGDH-luciferase fusion gene reporter induction in three colon cancer cell lines (stated jointly); format: cell-based
[4] = system: CD45.2 marked C57BL/6J donor marrow in lethally irradiated CD45.1 mice; assay: Competitive bone marrow transplant, chimerism; format: in vivo; details: donor 5 mg/kg IP daily for 3 doses; weeks 12 and 16
Description: On day 3 mice were sacrificed, marrow flushed and mixed at a 1:1 ratio with vehicle treated CD45.1 marrow. 2 million whole BM cells were injected into the tail vein of lethally irradiated CD45.1 mice and percent chimerism measured via flow cytometry at weeks 8, 12, 16.

[5] = system: 15-PGDH mRNA in colon cancer cell lines; assay: 15-PGDH mRNA levels by real-time PCR; format: cell-based
Text: In these studies parental cell lines (not containing the 15-PGDH-luciferase reporter) are employed.

[6] = system: V9m reporter cell line expressing a 15-PGDH luciferase fusion construct; assay: 15-PGDH-luciferase fusion gene reporter induction, V9m cell line; format: cell-based; details: […], % increased luciferase activity over basal level
Procedure, shortened: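 Colon cancer reporter lines were treated with compound at 2.5 uM or 7.5 uM. Luciferase activity is expressed as % increase over basal level in DMSO vehicle-treated cells, where 100 means a doubling.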

SMILES: CCCC[S+]([O-])c1sc2nc(-c3cccs3)cc(-c3ccccc3)c2c1N (stereo not shown) [SW033291, 2-(butylsulfinyl)-4-phenyl-6-(thiophen-2-yl)thieno[2,3-b]pyridin-3-amine]
- PGE2 levels in the medium, ranking (A549 cells; 100 nM drug, 15-PGDH inhibitors): next highest level of PGE2
- Effect on PGE2 levels in medium, in words (A549 cells; IL1-beta stimulated A549 cells): clear inhibition of 15-PGDH activity
- PGE2 levels achieved (A549 cells; IL-1β 16 h, compound 8 h, highest level of titration): 3000 pg/mL
- Survival of transplanted mice, in words (C57BL/6J mice [1]; 5 mg/kg IP twice daily): promoted survival of mice receiving a bone marrow transplant
- Mouse survival (number of surviving mice) (C57BL/6J mice [1]; 1 × 10^5 cells, Day 1): 3
- Mouse survival (number of surviving mice) (C57BL/6J mice [1]; 1 × 10^5 cells, Day 2): 3
- Mouse survival (number of surviving mice) (C57BL/6J mice [1]; 1 × 10^5 cells, Day 3): 3
- Mouse survival (number of surviving mice) (C57BL/6J mice [1]; 1 × 10^5 cells, Day 4): 2
- Mouse survival (number of surviving mice) (C57BL/6J mice [1]; 1 × 10^5 cells, Day 5): 1
- Mouse survival (number of surviving mice) (C57BL/6J mice [1]; 1 × 10^5 cells, Day 6): 0
- Mouse survival (number of surviving mice) (C57BL/6J mice [1]; 2 × 10^5 cells, Day 1): 3
- Mouse survival (number of surviving mice) (C57BL/6J mice [1]; 2 × 10^5 cells, Day 2): 3
- Mouse survival (number of surviving mice) (C57BL/6J mice [1]; 2 × 10^5 cells, Day 3): 3
- Mouse survival (number of surviving mice) (C57BL/6J mice [1]; 2 × 10^5 cells, Day 4): 3
- Mouse survival (number of surviving mice) (C57BL/6J mice [1]; 2 × 10^5 cells, Day 5): 3
- Mouse survival (number of surviving mice) (C57BL/6J mice [1]; 2 × 10^5 cells, Day 6): 2
- Mouse survival (number of surviving mice) (C57BL/6J mice [1]; 2 × 10^5 cells, Day 7): 2
- Mouse survival (number of surviving mice) (C57BL/6J mice [1]; 2 × 10^5 cells, Day 8): 2
- Mouse survival (number of surviving mice) (C57BL/6J mice [1]; 2 × 10^5 cells, Day 9): 2
- Mouse survival (number of surviving mice) (C57BL/6J mice [1]; 2 × 10^5 cells, Day 10): 2
- Mouse survival (number of surviving mice) (C57BL/6J mice [1]; 2 × 10^5 cells, Day 11): 2
- Mouse survival (number of surviving mice) (C57BL/6J mice [1]; 2 × 10^5 cells, Day 12): 1
- Mouse survival (number of surviving mice) (C57BL/6J mice [1]; 2 × 10^5 cells, Day 13): 0
- Mouse survival (number of surviving mice) (C57BL/6J mice [1]; 5 × 10^5 cells, Day 1): 3
- Mouse survival (number of surviving mice) (C57BL/6J mice [1]; 5 × 10^5 cells, Day 2): 3
- Mouse survival (number of surviving mice) (C57BL/6J mice [1]; 5 × 10^5 cells, Day 3): 3
- Mouse survival (number of surviving mice) (C57BL/6J mice [1]; 5 × 10^5 cells, Day 4): 3
- Mouse survival (number of surviving mice) (C57BL/6J mice [1]; 5 × 10^5 cells, Day 5): 3
- Mouse survival (number of surviving mice) (C57BL/6J mice [1]; 5 × 10^5 cells, Day 6): 3
- Mouse survival (number of surviving mice) (C57BL/6J mice [1]; 5 × 10^5 cells, Day 7): 3
- Mouse survival (number of surviving mice) (C57BL/6J mice [1]; 5 × 10^5 cells, Day 8): 2
- Mouse survival (number of surviving mice) (C57BL/6J mice [1]; 5 × 10^5 cells, Day 9): 2
- Mouse survival (number of surviving mice) (C57BL/6J mice [1]; 5 × 10^5 cells, Day 10): 2
- Mouse survival (number of surviving mice) (C57BL/6J mice [1]; 5 × 10^5 cells, Day 11): 2
- Mouse survival (number of surviving mice) (C57BL/6J mice [1]; 5 × 10^5 cells, Day 12): 2
- Mouse survival (number of surviving mice) (C57BL/6J mice [1]; 5 × 10^5 cells, Day 13): 2
- Mouse survival (number of surviving mice) (C57BL/6J mice [1]; 5 × 10^5 cells, Day 19): 2
- Body weight versus control, in words (FVB male mice; 5 mg/kg IP twice daily): greater weight at all time points; also recorded: greater body weight
- Ulcer formation (FVB male mice; colonoscopy days 8, 11, 15): prevents two-thirds of ulcer formation
- Colon length versus control, in words (FVB male mice; day 22): greater colon lengths
- Mice surviving at 120 hours (C57BL/6J mice [2]; 5 mg/kg IP bid beginning 3 hours prior to acetaminophen, 6 doses): 3 of 6
- Mice surviving at 120 hours (C57BL/6J mice [2]; 5 mg/kg IP bid beginning 48 hours prior to acetaminophen, 9 doses): 10 of 12
- Number of mice surviving (C57BL/6J mice [2]; 1 dose daily, 16 hr): 6
- Number of mice surviving (C57BL/6J mice [2]; 1 dose daily, 24 hrs): 6
- Number of mice surviving (C57BL/6J mice [2]; 2 dose daily, 16 hr): 6
- Number of mice surviving (C57BL/6J mice [2]; 2 dose daily, 24 hrs): 6
- Number of mice surviving (C57BL/6J mice [2]; 2 dose daily, 48 hrs): 3
- Number of mice surviving (C57BL/6J mice [2]; 2 dose daily, 64 hrs): 3
- Number of mice surviving (C57BL/6J mice [2]; 2 dose daily, 72 hrs): 3
- Number of mice surviving (C57BL/6J mice [2]; 2 dose daily, 88 hr): 3
- Number of mice surviving (C57BL/6J mice [2]; 2 dose daily, 96 hr): 3
- Number of mice surviving (C57BL/6J mice [2]; 2 dose daily, 112 hr): 3
- Number of mice surviving (C57BL/6J mice [2]; 2 dose daily, 120 hr): 3
- Survival (number of mice) (C57BL/6J mice [2]; Table 11, bid beginning 48 hours prior to acetaminophen, 16 hr): 12
- Survival (number of mice) (C57BL/6J mice [2]; Table 11, bid beginning 48 hours prior to acetaminophen, 24 hrs): 12
- Survival (number of mice) (C57BL/6J mice [2]; Table 11, bid beginning 48 hours prior to acetaminophen, 40 hrs): 11
- Survival (number of mice) (C57BL/6J mice [2]; Table 11, bid beginning 48 hours prior to acetaminophen, 48 hrs): 10
- Survival (number of mice) (C57BL/6J mice [2]; Table 11, bid beginning 48 hours prior to acetaminophen, 64 hrs): 10
- Survival (number of mice) (C57BL/6J mice [2]; Table 11, bid beginning 48 hours prior to acetaminophen, 72 hrs): 10
- Survival (number of mice) (C57BL/6J mice [2]; Table 11, bid beginning 48 hours prior to acetaminophen, 88 hr): 10
- Survival (number of mice) (C57BL/6J mice [2]; Table 11, bid beginning 48 hours prior to acetaminophen, 96 hr): 10
- Survival (number of mice) (C57BL/6J mice [2]; Table 11, bid beginning 48 hours prior to acetaminophen, 112 hr): 10
- Survival (number of mice) (C57BL/6J mice [2]; Table 11, bid beginning 48 hours prior to acetaminophen, 120 hr): 10
- Survival (number of mice) (C57BL/6J mice [2]; Table 12, bid beginning 3 hours prior to acetaminophen, 16 hr): 6
- Survival (number of mice) (C57BL/6J mice [2]; Table 12, bid beginning 3 hours prior to acetaminophen, 24 hrs): 5
- Survival (number of mice) (C57BL/6J mice [2]; Table 12, bid beginning 3 hours prior to acetaminophen, 48 hrs): 3
- Survival (number of mice) (C57BL/6J mice [2]; Table 12, bid beginning 3 hours prior to acetaminophen, 64 hrs): 3
- Survival (number of mice) (C57BL/6J mice [2]; Table 12, bid beginning 3 hours prior to acetaminophen, 72 hrs): 3
- Survival (number of mice) (C57BL/6J mice [2]; Table 12, bid beginning 3 hours prior to acetaminophen, 88 hr): 3
- Survival (number of mice) (C57BL/6J mice [2]; Table 12, bid beginning 3 hours prior to acetaminophen, 96 hr): 3
- Survival (number of mice) (C57BL/6J mice [2]; Table 12, bid beginning 3 hours prior to acetaminophen, 112 hr): 3
- Survival (number of mice) (C57BL/6J mice [2]; Table 12, bid beginning 3 hours prior to acetaminophen, 120 hr): 3
- Hepatocyte stability (Hepatocyte stability): Stable > couple hrs
- Induction of 15-PGDH-luciferase reporter, in words [3]: increase luciferase activity
- Percent blood chimerism of CD45.2 marked cells [4]: significantly increased
- 15-PGDH mRNA levels ([5]; V503 cells): slight increase in 15-PGDH mRNA
- 15-PGDH mRNA levels ([5]; treated colon cancer cell lines, real-time PCR): do not in general alter 15-PGDH mRNA levels
- V9M reporter activity ([…]) [6]: 93.16%
- V9M reporter activity ([…]) ([6]; 100 = doubling): 98.24%
